# Test results published in publication PMC6010092, “Novel hits for acetylcholinesterase inhibition derived by docking-based screening on ZINC database” (Journal of Enzyme Inhibition and Medicinal Chemistry, 2018).
# Entries after “also recorded” stand apart in the source; their conditions may differ. Where two headings read alike, the source gives them in different places.
# Columns and labels:
# [1] = molecular target: T1, AChE from Electrophorus electricus (eeAChE) (Electrophorus electricus, UniProt O42275); test: biochemical; format: binding
# T1 construct: purchased Sigma Aldrich
# T1 sequence (O42275 24-633): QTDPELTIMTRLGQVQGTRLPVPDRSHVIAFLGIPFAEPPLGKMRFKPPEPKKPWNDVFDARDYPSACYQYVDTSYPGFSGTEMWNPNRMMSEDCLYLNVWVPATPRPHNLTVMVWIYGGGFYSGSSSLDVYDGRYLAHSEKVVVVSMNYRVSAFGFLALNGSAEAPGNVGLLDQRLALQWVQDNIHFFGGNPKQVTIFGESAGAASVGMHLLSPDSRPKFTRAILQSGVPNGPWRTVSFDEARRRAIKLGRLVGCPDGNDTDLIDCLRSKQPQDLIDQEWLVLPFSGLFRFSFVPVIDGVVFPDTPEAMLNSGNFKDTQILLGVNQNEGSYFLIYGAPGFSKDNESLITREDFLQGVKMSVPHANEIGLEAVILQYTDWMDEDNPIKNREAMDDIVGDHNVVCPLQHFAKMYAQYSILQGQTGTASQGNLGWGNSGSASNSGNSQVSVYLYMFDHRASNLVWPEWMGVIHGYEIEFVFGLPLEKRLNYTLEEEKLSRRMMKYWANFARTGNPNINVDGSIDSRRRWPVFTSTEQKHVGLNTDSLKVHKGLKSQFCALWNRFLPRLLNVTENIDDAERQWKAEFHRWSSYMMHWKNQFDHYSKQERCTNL
# Method: The ITC measurements[40] were performed on NanoITC tool (TA Instruments, Lindon, UT) with 190 µL sample cell and 50 µL syringe. […] The tested compounds were prepared in 5 mM stock solutions in ethanol and diluted to 0.5 mM in 50 mM Tris-HCl pH 7.4 buffer. All samples were degassed prior the experiments. The AChE solution was placed into the sample cell and titrated by the tested compounds in 25 steps of 2 µL at 5 min intervals at 25 °C. The blank samples (buffer lacking AChE) were titrated at the same conditions. The corresponding Kd values were calculated using NanoAnalyze software (TA Instruments, Lindon, UT).
# [2] = tested on: NEURO-2A cells; test: Neurotoxicity test, MTT-dye reduction assay; format: cell-based; conditions: for IC50: Mus musculus, N2a, 72-h incubation, MTT, read-out: IC50 Neuro2A; for Neurotoxicity on Neuro-2A cells (in words): concentrations up to 100 µM
# Method: Murine neuroblastoma NEURO-2 A cells (German collection DSMZ, Braunschweig, Germany) were cultivated under standard conditions: complete medium (90% DMEM, 10% heat-inactivated FBS, and 1 × non-essential amino acids); 37 °C and5% CO2 in fully humidified atmosphere. The cell line was kept in the logarithmic growth phase by splitting 1:4 once a week using trypsin/EDTA. About 30% of the cells grow like neuronal cells. For the experimental evaluation of the cytotoxicity NEURO-2A, cells were plated in 96-well flat-bottomed cell culture plates at the recommended density of 1 × 10^6 cells/25 cm^2. After 24 h, the cells were treated with various concentrations of the investigational compounds and after 72-h incubation, a MTT-dye reduction assay was performed. Briefly, at the end of incubation, a MTT stock solution (10 mg/ml in PBS) was added (10 µL/well). Plates were further incubated at 37 °C for 4 h. Next, the formazan crystals were dissolved by the addition of 110 µL/well 5% formic acid in 2-propanol (v/v). Absorption was measured at 580 nm wavelength on an automated ELISA reader Labexim LMR1. At least six wells per concentration were used, and data were processed using the GraphPad Prism 5.0 software 2.
# [3] = PAMPA BBB permeability; format: in vitro ADME; conditions: −logPe, pH 7.4, 25 °C, 4 h, lipid BBB-1
# Method: The intestinal and BBB permeabilities were measured by PAMPA Permeability Analyzer (pION Inc.) at the following settings: wavelength analysed 250–500 nm, pH 7.4, temperature 25 °C, permeation time 4 h, lipid formulation GIT-0 and stirring 60 rpm and BBB-1 and no stirring, respectively. […]. Carbamazepine, ketoprofen, and ranitidine were used as controls for intestinal permeability. Theophylline, progesterone, and propranolol were used as controls for BBB permeability.
# [4] = PAMPA GIT (intestinal) permeability; format: in vitro ADME; conditions: −logPe, pH 6.2, 25 °C, 4 h, lipid GIT-0
# [5] = tested on: NEURO-2A cells; conditions: read-out: IC50 Neuro2A; cited from earlier work
# [6] = cited from earlier work
SMILES,"Kd ([1]; ITC, read-out: Kd)",IC50 [2],Neurotoxicity on Neuro-2A cells (in words) [2],pPe pH 7.4 BBB PAMPA [3],pPe pH 6.2 GIT PAMPA [4],"Kd ITC ([1]; 25 °C, pH 7.4)","Kd ([1]; 25 °C, pH 7.4, read-out: Kd ITC)",IC50 [5],CL [6],VD^ss [6],t1/2 [6]
"CN(Cc1ccccc1-c1ccccc1)C(=O)CCn1ccccc1=O [Compound 1, N-Methyl-3-(2-oxo-1-pyridyl)-N-[(2-phenylphenyl)methyl]propanamide]",525 nM,> 100000 nM,non-toxic,4.540,4.268,,,,,,
"O=C(CCn1ccc2ccccc21)NCCCn1cnc2ccccc21 [Compound 2, N-[3-(benzimidazol-1-yl)propyl]-3-indol-1-yl-propanamide]",618 nM,> 100000 nM,absence of toxicity; also recorded: non-toxic,4.452,4.339,,,,,,
"O=C(CCn1nc(-c2ccccc2)ccc1=O)NCCc1ccccc1 [Compound 3, 3-(6-Oxo-3-phenylpyridazin-1(6H)-yl)-N-phenethylpropanamide]",555 nM,> 100000 nM,non-toxic,4.294,4.207,,,,,,
"Cn1cc(CNCc2ccc3ncccc3c2)c(-c2ccccc2F)n1 [Compound 4, 1-[3-(2-fluorophenyl)-1-methyl-pyrazol-4-yl]-N-(6-quinolylmethyl) methanamine]",618 nM,35000 nM,,4.258,4.251,,,,,,
"O=C(Cn1ccc2ccccc21)NCCOc1cccc2cccnc12 [Compound 5, 2-indol-1-yl-N-[2-(8-quinolyloxy)ethyl]acetamide]",517 nM,> 100000 nM,non-toxic,4.146,4.230,,,,,,
"Cn1cc(CNC(=O)N2CCC(C(N)=O)CC2)c(-c2ccccc2)n1 [Compound 6, N^1-((1-methyl-3-phenyl-1H-pyrazol-4-yl)methyl)piperidine-1,4-dicarboxamide]",613 nM,> 100000 nM,non-toxic,5.008,4.428,,,,,,
"Cn1cc(CNCCc2cccc3cccnc23)c(-c2cccnc2)n1 [Compound 7, N-((1-methyl-3-(pyridin-3-yl)-1H-pyrazol-4-yl)methyl)-2-(quinolin-8-yl)ethanamine]",577 nM,> 100000 nM,non-toxic,4.267,4.246,,,,,,
"COc1ccc(CC(=O)N[C@@H](CO)[C@@H](O)c2ccc(N)cc2)cc1 [Compound 8, N-((1S,2S)-1-(4-aminophenyl)-1,3-dihydroxypropan-2-yl)-2-(4-methoxyphenyl)acetamide]",682 nM,> 100000 nM,non-toxic,4.731,4.469,,,,,,
"O=C(Cn1c(=O)[nH]c(=O)c2ccccc21)NCCc1cccc(F)c1 [Compound 9, 2–(2,4-dioxoquinazolin-1-yl)-N-[2-(3-fluorophenyl)ethyl]acetamide]",,> 100000 nM,,4.628,4.361,does not interact; also recorded: Non-binder,,,,,
"CC(C)n1cc(CC(=O)NCCc2ccc(O)cc2)c2ccccc21 [Compound 10, N-[2-(4-hydroxyphenyl)ethyl]-2-(1-isopropylindol-3-yl)acetamide]",,53000 nM,toxic,4.311,4.202,,735 nM,,,,
"COc1ccc2c3c1O[C@H]1C[C@@H](O)C=C[C@@]31CCN(C)C2 [GAL, galantamine]",,,,,,,,> 50000 nM,5.60[47] mL/min/kg,2.30[47] L/kg,5.30[47] h
